Experimental data: patent US20120121691A1, “Method for Increasing the Production of a Specific ACYL-Chain Dihydroceramide(s) for Improving the Effectiveness of Cancer Treatments” (priority 2010, published 2012)

What was measured:
CCRF-CEM = tested on: CCRF-CEM
Description: Statistical analyses. Descriptive statistics and significance testing were performed using Microsoft Excel. The Excel function “t.test” was used for Student's T-testing (two-tailed, type-2). Propagated standard deviations were calculated using standard methods. Correlation analyses were performed using Sigmaplot 11 software. […]
Due to the confounding effect of in vitro fatty acid conversion, correlation analyses were used to identify significant relationships between absolute levels of specific sphingolipids and cytotoxicity. […]

MOLT-4 = format: cell-based, human
Description: (§1) Statistical analyses. […] Propagated standard deviations were calculated using standard methods. Correlation analyses were performed using Sigmaplot 11 software.

COG-LL-332 = format: cell-based, human
Description: as §1

COG-LL-317 = format: cell-based, human
Description: as §1

Compound	Pearson Coef. (r), sphingolipid level vs cytotoxicity (CCRF-CEM)	Spearman Coef. (ρ), sphingolipid level vs cytotoxicity (CCRF-CEM)	Pearson Coef. (r), sphingolipid level vs cytotoxicity (MOLT-4)	Spearman Coef. (ρ), sphingolipid level vs cytotoxicity (MOLT-4)	Pearson Coefficient (r), sphingolipid level vs cytotoxicity (COG-LL-332)	Spearman Coefficient (ρ), sphingolipid level vs cytotoxicity (COG-LL-332)	Pearson Coef. (r), sphingolipid level vs cytotoxicity (COG-LL-317)	Spearman Coef. (ρ), sphingolipid level vs cytotoxicity (COG-LL-317)
CCCCCCCCCCCCCCC[C@@H](O)[C@@H](N)COP(=O)(O)O [Sphingaine-1-P]	0.44	0.38						
CCCCCCCCC=CCCCCCCCCCCCC(=O)NC(CO)C(O)CCCCCCCCCCCCCCC (centres unmarked) [C22:1-DHCer]	−0.13	0.22	−2.5 × 10^−3	0.24	0.07	0.62	−0.28	−0.26
CCCCCCCCC=CCCCCCCCCCCCC(=O)NC(CO)C(O)C=CCCCCCCCCCCCCC (centres unmarked) [C22:1-Cer]	−0.23	−0.24	−0.32	−0.48	−0.14	−0.26	−0.28	−0.60
CCCCCCCCCCCCCCCCCCCCCC(=O)N[C@@H](CO)[C@H](O)CCCCCCCCCCCCCCC [C22:0-DHCer]	0.67	0.75	0.79	0.91	0.73	0.81	0.86	0.79
CCCCCCCCCCCCCCCCCCCC(=O)N[C@@H](CO)[C@H](O)CCCCCCCCCCCCCCC [C20:0-DHCer]	0.20	0.32	0.12	0.14	−0.09	0	−0.04	0.14
CCCCCCCCCCCCCCCCCC(=O)N[C@@H](CO)[C@H](O)CCCCCCCCCCCCCCC [C18:0-DHCer]	0.22	0.15	0.12	0.14	−0.16	−0.16	−0.22	−0.38
CCCCCCCC/C=C\CCCCCCCCCCCCCC(=O)N[C@@H](CO)[C@H](O)/C=C/CCCCCCCCCCCCC [C24:1-Cer]	−0.27	−0.32	−0.43	−0.55	−0.07	0.05	−0.42	−0.74
CCCCCCCCCCCCCCCC(=O)N[C@@H](CO)[C@H](O)CCCCCCCCCCCCCCC [C16:0-DHCer]	0.26	0.37	0.26	0.57	0.45	0.62	0.03	0
CCCCCCCCCCCCCC=CC(O)C(CO)NC(=O)CCCCCCCCCCCCCCCCCCCCC (centres unmarked) [C22:0-Cer]	0.42	0.48	0.46	0.31	0.45	0	0.59	0.33
CCCCCCCCCCCCC/C=C/[C@@H](O)[C@@H](N)CO [Sphingosine]	0.02	−0.19						
